Measurements as given in ChEMBL document CHEMBL2346515, “Discovery of 4-alkylamino-7-aryl-3-cyanoquinoline LRRK2 kinase inhibitors” (Bioorg Med Chem Lett, 2013).

Experiments:
[1] = target: T1, Serine/threonine-protein kinase 3 (Homo sapiens) (UniProt Q13188); assay: Inhibition of STK3 (unknown origin) at 10 uM by single point assay
T1 sequence (whole entry): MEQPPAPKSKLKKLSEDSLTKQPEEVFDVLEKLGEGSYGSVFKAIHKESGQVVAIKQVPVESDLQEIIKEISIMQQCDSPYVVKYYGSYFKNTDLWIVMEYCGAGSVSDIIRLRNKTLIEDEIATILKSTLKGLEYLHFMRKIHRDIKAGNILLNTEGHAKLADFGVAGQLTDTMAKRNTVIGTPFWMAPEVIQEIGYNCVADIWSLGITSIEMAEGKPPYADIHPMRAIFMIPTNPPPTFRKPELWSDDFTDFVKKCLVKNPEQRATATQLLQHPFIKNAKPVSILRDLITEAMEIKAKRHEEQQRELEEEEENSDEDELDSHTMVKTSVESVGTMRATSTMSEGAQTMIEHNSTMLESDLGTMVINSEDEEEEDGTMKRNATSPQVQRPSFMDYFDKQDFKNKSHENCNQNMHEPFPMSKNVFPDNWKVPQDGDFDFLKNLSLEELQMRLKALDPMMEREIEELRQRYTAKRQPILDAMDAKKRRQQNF

[2] = target: Platelet-derived growth factor receptor alpha (Homo sapiens) (UniProt P16234); assay: Inhibition of PDGFRalpha (unknown origin) at 10 uM by single point assay
Platelet-derived growth factor receptor alpha (Homo sapiens), sequence (P16234 whole entry): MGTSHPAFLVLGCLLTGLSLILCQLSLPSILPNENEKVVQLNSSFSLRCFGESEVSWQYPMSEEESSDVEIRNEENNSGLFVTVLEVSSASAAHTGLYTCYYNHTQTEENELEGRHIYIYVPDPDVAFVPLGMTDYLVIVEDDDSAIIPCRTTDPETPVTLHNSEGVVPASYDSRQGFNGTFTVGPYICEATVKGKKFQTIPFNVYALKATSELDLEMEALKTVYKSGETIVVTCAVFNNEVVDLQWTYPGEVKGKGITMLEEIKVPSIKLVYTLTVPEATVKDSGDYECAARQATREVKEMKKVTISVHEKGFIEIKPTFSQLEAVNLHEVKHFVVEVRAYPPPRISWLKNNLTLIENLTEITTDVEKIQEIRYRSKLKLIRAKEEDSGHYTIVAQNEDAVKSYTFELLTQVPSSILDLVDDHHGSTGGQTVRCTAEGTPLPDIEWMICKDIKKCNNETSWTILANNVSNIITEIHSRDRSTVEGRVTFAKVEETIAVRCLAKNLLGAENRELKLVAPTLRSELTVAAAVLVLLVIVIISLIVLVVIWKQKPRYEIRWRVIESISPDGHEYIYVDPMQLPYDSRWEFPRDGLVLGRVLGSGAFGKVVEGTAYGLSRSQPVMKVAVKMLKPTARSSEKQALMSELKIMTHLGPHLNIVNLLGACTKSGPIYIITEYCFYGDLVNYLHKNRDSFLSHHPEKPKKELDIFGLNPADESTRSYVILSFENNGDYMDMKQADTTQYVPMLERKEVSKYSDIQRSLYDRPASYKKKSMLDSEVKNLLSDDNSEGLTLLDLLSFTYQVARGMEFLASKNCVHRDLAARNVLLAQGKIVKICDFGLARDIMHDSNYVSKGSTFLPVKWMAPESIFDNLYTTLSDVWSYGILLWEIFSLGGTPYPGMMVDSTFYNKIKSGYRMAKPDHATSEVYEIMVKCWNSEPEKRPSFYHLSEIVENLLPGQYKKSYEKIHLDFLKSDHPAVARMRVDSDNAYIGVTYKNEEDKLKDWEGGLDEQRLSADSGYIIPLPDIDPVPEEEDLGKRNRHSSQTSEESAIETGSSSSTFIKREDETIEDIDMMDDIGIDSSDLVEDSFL

[3] = target: Mitogen-activated protein kinase 1 (Homo sapiens) (UniProt P28482); assay: Inhibition of MAPK1 (unknown origin) at 10 uM by single point assay
Mitogen-activated protein kinase 1 (Homo sapiens), sequence (P28482 whole entry): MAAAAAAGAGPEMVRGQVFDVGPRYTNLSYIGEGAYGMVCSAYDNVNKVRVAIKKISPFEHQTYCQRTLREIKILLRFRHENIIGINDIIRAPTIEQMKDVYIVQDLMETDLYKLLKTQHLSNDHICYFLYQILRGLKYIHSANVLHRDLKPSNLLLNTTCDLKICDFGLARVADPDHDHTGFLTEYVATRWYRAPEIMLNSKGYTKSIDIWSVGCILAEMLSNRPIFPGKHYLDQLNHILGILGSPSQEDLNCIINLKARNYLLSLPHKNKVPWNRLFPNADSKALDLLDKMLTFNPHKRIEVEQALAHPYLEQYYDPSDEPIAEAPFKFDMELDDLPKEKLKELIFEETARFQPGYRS

[4] = target: Macrophage colony-stimulating factor 1 receptor (Homo sapiens) (UniProt P07333); assay: Inhibition of CSF1R (unknown origin) at 10 uM by single point assay
Macrophage colony-stimulating factor 1 receptor (Homo sapiens), sequence (P07333 whole entry): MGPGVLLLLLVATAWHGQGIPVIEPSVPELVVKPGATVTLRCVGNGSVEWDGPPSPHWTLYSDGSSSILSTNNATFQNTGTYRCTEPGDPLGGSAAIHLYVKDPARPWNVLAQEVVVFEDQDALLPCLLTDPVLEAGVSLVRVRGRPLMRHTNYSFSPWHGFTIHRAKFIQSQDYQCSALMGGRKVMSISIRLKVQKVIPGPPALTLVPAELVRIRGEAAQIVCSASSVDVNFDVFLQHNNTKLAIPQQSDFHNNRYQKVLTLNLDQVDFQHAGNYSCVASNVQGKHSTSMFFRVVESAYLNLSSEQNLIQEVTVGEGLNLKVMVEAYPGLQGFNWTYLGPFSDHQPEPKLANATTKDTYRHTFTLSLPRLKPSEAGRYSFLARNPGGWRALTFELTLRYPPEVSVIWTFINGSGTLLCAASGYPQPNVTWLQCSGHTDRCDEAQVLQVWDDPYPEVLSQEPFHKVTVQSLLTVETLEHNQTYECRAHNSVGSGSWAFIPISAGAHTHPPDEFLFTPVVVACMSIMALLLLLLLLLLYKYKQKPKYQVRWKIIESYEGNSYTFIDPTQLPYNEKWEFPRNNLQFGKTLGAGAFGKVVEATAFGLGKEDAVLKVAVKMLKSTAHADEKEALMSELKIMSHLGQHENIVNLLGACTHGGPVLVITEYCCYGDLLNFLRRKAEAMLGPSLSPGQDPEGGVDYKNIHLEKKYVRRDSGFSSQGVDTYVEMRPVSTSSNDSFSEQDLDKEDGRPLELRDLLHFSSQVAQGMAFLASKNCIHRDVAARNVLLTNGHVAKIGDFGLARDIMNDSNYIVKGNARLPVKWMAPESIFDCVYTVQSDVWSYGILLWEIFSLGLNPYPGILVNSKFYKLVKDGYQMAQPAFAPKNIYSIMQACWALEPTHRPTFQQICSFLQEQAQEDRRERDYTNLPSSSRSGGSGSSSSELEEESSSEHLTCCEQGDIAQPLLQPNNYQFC

[5] = target: T2, Aurora kinase A (Homo sapiens) (UniProt O14965); assay: Inhibition of AURKA (unknown origin) at 10 uM by single point assay
T2 sequence (whole entry): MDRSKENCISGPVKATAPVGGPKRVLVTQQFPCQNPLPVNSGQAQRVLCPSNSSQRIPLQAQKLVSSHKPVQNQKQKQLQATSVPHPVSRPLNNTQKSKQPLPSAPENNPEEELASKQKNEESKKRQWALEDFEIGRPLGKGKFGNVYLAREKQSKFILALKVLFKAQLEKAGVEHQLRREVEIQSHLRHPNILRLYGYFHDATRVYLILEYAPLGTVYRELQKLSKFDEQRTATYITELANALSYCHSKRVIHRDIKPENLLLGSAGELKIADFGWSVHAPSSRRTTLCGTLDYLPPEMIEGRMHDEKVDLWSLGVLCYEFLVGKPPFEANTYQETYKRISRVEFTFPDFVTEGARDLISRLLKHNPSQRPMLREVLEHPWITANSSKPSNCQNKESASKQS

inhibition [1]: 18%
inhibition [2]: 5%
inhibition [3]: -2%
inhibition [4]: 39%
inhibition [5]: 67%
Structure (SMILES): C[C@@H](Nc1c(C#N)cnc2cc(-c3ccc(-n4ccoc4=O)cc3)ccc12)C1CC1
